Results published in PMC9775191, “A Subset Screen of the Compounds Australia Scaffold Library Identifies 7-Acylaminodibenzoxazepinones as Potent and Selective Hits for Anti-Giardia Drug Discovery” (Biomedicines, 2022).

Test system: G. duodenalis BRIS/91/HEPU/1279
Test: Primary Giardia screen at 10 µM (live-cell imaging, automated counting)
Type: cell-based, Giardia duodenalis
Conditions: 24 h
How it was run: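 Compounds were tested once each at 10 μM final (0.2% DMSO) in culture medium under 3% O2, 5% CO2 in N2. Growth was read at 24 and 48 h by live-cell imaging with automated counting, and inhibition expressed as percent growth versus 0.2% DMSO vehicle after media-only background subtraction.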

With `Cc1csc(-c2cc(S(=O)(=O)N3c4ccccc4CC3C)c(C)n2C)n1` (stereo not shown) [SN00795179] the “Average % Inhibition 24h” value was 22.6%.

Same assay, conditions: 24 h, first singlicate assay

`Cc1csc(-c2cc(S(=O)(=O)N3c4ccccc4CC3C)c(C)n2C)n1` (stereo not shown) [SN00795179] was tested, and the “% Inhibition n=1 24h” value was 34.1%.

Same assay, conditions: 24 h, re-assessment

In the case of `Cc1csc(-c2cc(S(=O)(=O)N3c4ccccc4CC3C)c(C)n2C)n1` (stereo not shown) [SN00795179], the “% Inhibition n=2 24h” value is reported as 11.1%.

Same assay, conditions: 48 h

For `Cc1csc(-c2cc(S(=O)(=O)N3c4ccccc4CC3C)c(C)n2C)n1` (stereo not shown) [SN00795179], the “Average % Inhibition 48h” value was 63.7%.

Same assay, conditions: 48 h, first singlicate assay

First: CCn1nc(C(=O)NCc2ccccc2F)cc1-c1cc(C)sc1C [SN00802641]
Second: COC(=O)C(C)n1cnc2c(nnn2Cc2ccccc2F)c1=O (stereo not shown) [SN00802558]
The “% Inhibition n=1 48h” value of the first is lower: 9.7% for the first, 11.4% for the second.

`COc1ccc(-c2nc(CN3C(=O)C(=O)N(C(C)C)C3=O)cs2)cc1` [SN00769384] and `COc1ccc(-c2nnc(CN3C(=O)NC(C)(CCC(C)C)C3=O)o2)cc1` (stereo not shown) [SN00773994] are the same in “% Inhibition n=1 48h” value: 0.0% for the first, 0.0% for the second.

First: CC(C)(C)c1cc2nc(-c3ccccc3)cc(C(=O)NC3CCCCNC3=O)n2n1 (stereo not shown) [SN00802787]
Second: CC(C)(C)NC(=O)c1cc(-c2cccnc2)[nH]n1 [SN00799308]
The “% Inhibition n=1 48h” value of the first is lower: 0.0% for the first, 15.5% for the second.

Compared with `C=CCn1c(C)c(CC(=O)Nc2cc(F)ccc2C)c(=O)n2nc(-c3ccccc3)nc12` [SN00786890], `Cc1nc2c(c(=O)n1CC(=O)Nc1cccc(F)c1)CCN(Cc1ccccc1)C2` [SN00795483] is lower in “% Inhibition n=1 48h” value: 40.6% for the first, 0.0% for the second.

`Cc1ccc(C(=O)N2CCCC2c2nc(-c3cccc(C)c3)no2)cc1` (stereo not shown) [SN00797416] and `CCOC(=O)C1CCN(C(=O)c2ccc3c(c2)C(=O)N(c2ccccc2C)C3=O)CC1` [SN00774484] are the same in “% Inhibition n=1 48h” value: 0.0% for the first, 0.0% for the second.

Going from `CC(=O)N1CCCN(Cc2ncc(Cl)n2C)CC1` [SN00771536] to `CCc1nc(C)c2c(C)c(C(=O)N3CCN(Cc4ccc(OC)c(F)c4)CC3)sc2n1` [SN00779632], the “% Inhibition n=1 48h” value falls from 46.7% to 14.8%.

First: O=C(NCC1CN2CCCC2CO1)c1ccccc1-n1cnnn1 (stereo not shown) [SN00781319]
Second: NC(=O)C1CCN(C(=O)c2snc(C(=O)NCc3ccccc3)c2N)CC1 [SN00797750]
The “% Inhibition n=1 48h” value of the first is lower: 0.0% for the first, 8.9% for the second.

Going from `CCOc1ccc(CCNC(=O)c2c(C)oc3c2C2=NCCN2C=N3)cc1OCC` [SN00791607] to `CCOc1cc2c(cc1OCC)-n1cccc1C(c1cccc([N+](=O)[O-])c1)NC2` (stereo not shown) [SN00783996], the “% Inhibition n=1 48h” value falls from 17.8% to 10.3%.

Compared with `CCn1cc(C(=O)Nc2ccc(F)cc2)c(S(=O)(=O)N2CCC(C)CC2)n1` [SN00798700], `Cc1ccc(NC(=O)CN2N=C(C(=O)Nc3ccc(F)cc3)CCC2=O)cc1F` [SN00799502] is higher in “% Inhibition n=1 48h” value: 0.0% for the first, 8.0% for the second.

Going from `COCCOCC(C)NC(=O)Cc1csc(N2CCCNC2=O)n1` (stereo not shown) [SN00781237] to `CS(=O)(=O)N1CCCC1C(=O)OCc1cc(=O)n2c3c(sc2n1)CCCC3` (stereo not shown) [SN00775816], the “% Inhibition n=1 48h” value falls from 11.2% to 10.4%.

Compared with `CCC(=O)N1CC(C(=O)NCCN(C)C)C2(CCOCC2)C1` (stereo not shown) [SN00802145], `COc1ccc(NC(=O)c2cnc(N3CCN(CC(=O)N4CCCC4)CC3)nc2N)cc1` [SN00798764] is lower in “% Inhibition n=1 48h” value: 13.1% for the first, 0.0% for the second.

Going from `Cc1sc(-n2cccc2)c(C(=O)NC2CCCCCC2)c1C` [SN00776382] to `Cc1csc(-c2cc(S(=O)(=O)N3c4ccccc4CC3C)c(C)n2C)n1` (stereo not shown) [SN00795179], the “% Inhibition n=1 48h” value rises from 0.0% to 71.5%.

Compared with `CC1(c2ccco2)NC(=O)N(NC(=O)c2sc3ccccc3c2Cl)C1=O` (stereo not shown) [SN00771283], `Cc1cc2n(CC(O)COc3ccccc3F)c(=O)c3ccccc3n2n1` (stereo not shown) [SN00770617] is higher in “% Inhibition n=1 48h” value: 16.0% for the first, 17.7% for the second.

Compared with `CNc1nc(C(N)=O)c(NC(=O)c2ccc(OC)cc2)s1` [SN00794269], `COc1ccccc1CN1CCN(c2cc(C(=O)O)c3cc(NC(C)=O)ccc3n2)CC1` [SN00790290] is higher in “% Inhibition n=1 48h” value: 25.8% for the first, 39.8% for the second.

First: Cc1ccc(Nc2cc(N3CCN(S(=O)(=O)c4ccc(C)c(C)c4)CC3)nc(C)n2)cc1 [SN00786472]
Second: COCCn1cc2c3c(cccc31)CN(C(=O)c1cccc(Cl)c1)CC2 [SN00798558]
The “% Inhibition n=1 48h” value of the first is lower: 20.7% for the first, 26.2% for the second.

Going from `CCn1nnc(NCc2ccc(-c3ccccc3)cc2)n1` [SN00786962] to `c1ccc(-n2nnnc2Oc2ccc(-c3nc4ccccc4s3)cc2)cc1` [SN00775768], the “% Inhibition n=1 48h” value rises from 14.2% to 19.1%.

Same assay, conditions: 48 h, re-assessment

For `Cc1csc(-c2cc(S(=O)(=O)N3c4ccccc4CC3C)c(C)n2C)n1` (stereo not shown) [SN00795179], the “% Inhibition n=2 48h” value was 55.8%.
